Laboratory results as given in patent US10202361B2, “Pyridazinones as herbicides” (E I DU PONT DE NEMOURS AND COMPANY, priority 2014, dated 2019).

Key:
Experiment in all cases: Test E pre-/postemergence greenhouse herbicide test
Type in all cases: in vivo
[1] = system: lambsquarters (Chenopodium album); settings: Preemergence, scale 0 to 100
Excerpt: (§1) Seeds of plant species selected from corn (Zea mays), soybean (Glycine max), lambsquarters (Chenopodium album), poinsettia, wild (wild poinsettia, Euphorbia heterophylla), pigweed, palmer (palmer pigweed, Amaranthus palmeri), waterhemp (common waterhemp, Amaranthus rudis), surinam grass (Brachiaria decumbens), crabgrass, large (large crabgrass Digitaria sanguinalis), crabgrass, Brazil (Brazilian crabgrass, Digitaria horizontalis), panicum, fall (fall panicum, Panicum dichotomiflorum), foxtail, giant (giant foxtail, Setaria faberii), foxtail, green (green foxtail, Setaria viridis), goosegrass (Eleusine indica), johnsongrass (Sorghum halepense), ragweed (common ragweed, Ambrosia elatior), barnyardgrass (Echinochloa crus-galli), sandbur (southern sandbur, Cenchrus echinatus), arrowleaf sida (Sida rhombifolia), ryegrass, Italian (Italian ryegrass, Lolium multiflorum), dayflower, VA (Virginia dayflower, Commelina virginica), field bindweed (Convolvulus arvensis), cocklebur (common cocklebur, Xanthium strumarium), morningglory (Ipomoea coccinea), nightshade (eastern black nightshade, Solanum ptycanthum), kochia (Kochia scoparia), nutsedge, yellow (yellow nutsedge, Cyperus esculentus), smartweed (ladysthumb smartweed, Polygonum persicaria), velvetleaf (Abutilon theophrasti), and beggarticks (hairy beggarticks, Bidens pilosa), were planted into a silt loam soil and treated preemergence with test chemicals formulated in a non-phytotoxic solvent mixture which included a surfactant.
(§2) At the same time, plants from these crop and weed species and also waterhemp_RES1, (ALS & Triazine resistant common waterhemp, Amaranthus rudis), and waterhemp_RES2, (ALS & HPPD resistant common waterhemp, Amaranthus rudis) were planted in pots containing Redi-Earth® planting medium (Scotts Company, 14111 Scottslawn Road, Marysville, Ohio 43041) comprising spaghnum peat moss, vermiculite, wetting agent and starter nutrients were treated with postemergence applications of test chemicals formulated in the same manner. Plants ranged in height from 2 to 18 cm for postemergence treatments (1- to 4-leaf stage). Treated plants and controls were maintained in a greenhouse for 14 to 21 d, after which time all species were compared to controls and visually evaluated. Plant response ratings, summarized in Table E, are based on a scale of 0 to 100 where 0 is no effect and 100 is complete control. A dash (-) response means no test result.

[2] = system: foxtail, green (green foxtail, Setaria viridis); settings: Preemergence, scale 0 to 100
Excerpt: as §1, §2

[3] = system: johnsongrass (Sorghum halepense); settings: Preemergence, scale 0 to 100
Excerpt: as §1, §2

soybean (Glycine max) = settings: scale 0 to 100
Excerpt: as §1, §2

[4] = system: barnyardgrass (Echinochloa crus-galli); settings: scale 0 to 100
Excerpt: as §1, §2

[5] = system: velvetleaf (Abutilon theophrasti); settings: Preemergence, scale 0 to 100
Excerpt: as §1, §2

corn (Zea mays) = settings: scale 0 to 100
Excerpt: as §1, §2

[6] = system: beggarticks (hairy beggarticks, Bidens pilosa); settings: scale 0 to 100
Excerpt: as §1, §2

[7] = system: ryegrass, Italian (Italian ryegrass, Lolium multiflorum); settings: scale 0 to 100
Excerpt: as §1, §2

[8] = system: nightshade (eastern black nightshade, Solanum ptycanthum); settings: Preemergence, scale 0 to 100
Excerpt: as §1, §2

[9] = system: ragweed (common ragweed, Ambrosia elatior); settings: Preemergence, scale 0 to 100
Excerpt: as §1, §2

[10] = system: morningglory (Ipomoea coccinea); settings: Preemergence, scale 0 to 100
Excerpt: as §1, §2

[11] = system: panicum, fall (fall panicum, Panicum dichotomiflorum); settings: scale 0 to 100
Excerpt: as §1, §2

[12] = system: pigweed, palmer (palmer pigweed, Amaranthus palmeri); settings: scale 0 to 100
Excerpt: as §1, §2

kochia (Kochia scoparia) = settings: Preemergence, scale 0 to 100
Excerpt: as §1, §2

[13] = system: poinsettia, wild (wild poinsettia, Euphorbia heterophylla); settings: scale 0 to 100

`COc1cc(=O)n(-c2ccc(C(F)(F)F)cc2)nc1Cc1ccnc(C(F)(F)F)c1` [Compound 16, 5-methoxy-2-[4-(trifluoromethyl)phenyl]-6-[[2-(trifluoromethyl)-4-pyridinyl]methyl]-3(2H)-pyridazinone] was tested, and the “Plant response rating: Lambsquarters” value ([1]; 62 g ai/ha) was 98, the “Plant response rating: Lambsquarters” value ([1]; 125 g ai/ha) was 98 and the “Plant response rating: Lambsquarters” value ([1]; 250 g ai/ha) was 100. For the same molecule, the “Plant response rating: Foxtail, Green” value ([2]; 62 g ai/ha) was 50, the “Plant response rating: Foxtail, Green” value ([2]; 125 g ai/ha) was 95 and the “Plant response rating: Foxtail, Green” value ([2]; 250 g ai/ha) was 100. The “Plant response rating: Johnsongrass” value ([3]; 62 g ai/ha) was 35, the “Plant response rating: Johnsongrass” value ([3]; 125 g ai/ha) was 60 and the “Plant response rating: Johnsongrass” value ([3]; 250 g ai/ha) was 60. For the same molecule, the “Plant response rating: Soybean” value (soybean (Glycine max); Postemergence, 62 g ai/ha) was 35, the “Plant response rating: Soybean” value (soybean (Glycine max); Postemergence, 125 g ai/ha) was 50 and the “Plant response rating: Soybean” value (soybean (Glycine max); Postemergence, 250 g ai/ha) was 85. For the same molecule, the “Plant response rating: Soybean” value (soybean (Glycine max); Preemergence, 62 g ai/ha) was 0, the “Plant response rating: Soybean” value (soybean (Glycine max); Preemergence, 125 g ai/ha) was 20 and the “Plant response rating: Soybean” value (soybean (Glycine max); Preemergence, 250 g ai/ha) was 50. For the same molecule, the “Plant response rating: Barnyardgrass” value ([4]; Postemergence, 62 g ai/ha) was 15, the “Plant response rating: Barnyardgrass” value ([4]; Postemergence, 125 g ai/ha) was 30 and the “Plant response rating: Barnyardgrass” value ([4]; Postemergence, 250 g ai/ha) was 50. The “Plant response rating: Barnyardgrass” value ([4]; Preemergence, 62 g ai/ha) was 35, the “Plant response rating: Barnyardgrass” value ([4]; Preemergence, 125 g ai/ha) was 50 and the “Plant response rating: Barnyardgrass” value ([4]; Preemergence, 250 g ai/ha) was 70. The “Plant response rating: Velvetleaf” value ([5]; 62 g ai/ha) was 0, the “Plant response rating: Velvetleaf” value ([5]; 125 g ai/ha) was 0 and the “Plant response rating: Velvetleaf” value ([5]; 250 g ai/ha) was 50. For the same molecule, the “Plant response rating: Corn” value (corn (Zea mays); Postemergence, 62 g ai/ha) was 30, the “Plant response rating: Corn” value (corn (Zea mays); Postemergence, 125 g ai/ha) was 40 and the “Plant response rating: Corn” value (corn (Zea mays); Postemergence, 250 g ai/ha) was 50. For the same molecule, the “Plant response rating: Corn” value (corn (Zea mays); Preemergence, 62 g ai/ha) was 40, the “Plant response rating: Corn” value (corn (Zea mays); Preemergence, 125 g ai/ha) was 40 and the “Plant response rating: Corn” value (corn (Zea mays); Preemergence, 250 g ai/ha) was 65. The “Plant response rating: Beggarticks” value ([6]; Postemergence, 62 g ai/ha) was 30, the “Plant response rating: Beggarticks” value ([6]; Postemergence, 125 g ai/ha) was 50 and the “Plant response rating: Beggarticks” value ([6]; Postemergence, 250 g ai/ha) was 50. For the same molecule, the “Plant response rating: Beggarticks” value ([6]; Preemergence, 62 g ai/ha) was 0, the “Plant response rating: Beggarticks” value ([6]; Preemergence, 125 g ai/ha) was 0 and the “Plant response rating: Beggarticks” value ([6]; Preemergence, 250 g ai/ha) was 20. For the same molecule, the “Plant response rating: Ryegrass, Italian” value ([7]; Postemergence, 62 g ai/ha) was 20, the “Plant response rating: Ryegrass, Italian” value ([7]; Postemergence, 125 g ai/ha) was 20 and the “Plant response rating: Ryegrass, Italian” value ([7]; Postemergence, 250 g ai/ha) was 40. The “Plant response rating: Ryegrass, Italian” value ([7]; Preemergence, 62 g ai/ha) was 20, the “Plant response rating: Ryegrass, Italian” value ([7]; Preemergence, 125 g ai/ha) was 20 and the “Plant response rating: Ryegrass, Italian” value ([7]; Preemergence, 250 g ai/ha) was 50. For the same molecule, the “Plant response rating: Nightshade” value ([8]; 62 g ai/ha) was 80, the “Plant response rating: Nightshade” value ([8]; 125 g ai/ha) was 100 and the “Plant response rating: Nightshade” value ([8]; 250 g ai/ha) was 100. The “Plant response rating: Ragweed” value ([9]; 62 g ai/ha) was 0, the “Plant response rating: Ragweed” value ([9]; 125 g ai/ha) was 0 and the “Plant response rating: Ragweed” value ([9]; 250 g ai/ha) was 95. The “Plant response rating: Morningglory” value ([10]; 62 g ai/ha) was 25, the “Plant response rating: Morningglory” value ([10]; 125 g ai/ha) was 65 and the “Plant response rating: Morningglory” value ([10]; 250 g ai/ha) was 80. The “Plant response rating: Panicum, Fall” value ([11]; Postemergence, 62 g ai/ha) was 30, the “Plant response rating: Panicum, Fall” value ([11]; Postemergence, 125 g ai/ha) was 40 and the “Plant response rating: Panicum, Fall” value ([11]; Postemergence, 250 g ai/ha) was 50. The “Plant response rating: Panicum, Fall” value ([11]; Preemergence, 62 g ai/ha) was 50, the “Plant response rating: Panicum, Fall” value ([11]; Preemergence, 125 g ai/ha) was 90 and the “Plant response rating: Panicum, Fall” value ([11]; Preemergence, 250 g ai/ha) was 100. For the same molecule, the “Plant response rating: Pigweed, Palmer” value ([12]; Postemergence, 62 g ai/ha) was 70, the “Plant response rating: Pigweed, Palmer” value ([12]; Postemergence, 125 g ai/ha) was 75 and the “Plant response rating: Pigweed, Palmer” value ([12]; Postemergence, 250 g ai/ha) was 95. The “Plant response rating: Pigweed, Palmer” value ([12]; Preemergence, 62 g ai/ha) was 98, the “Plant response rating: Pigweed, Palmer” value ([12]; Preemergence, 125 g ai/ha) was 98 and the “Plant response rating: Pigweed, Palmer” value ([12]; Preemergence, 250 g ai/ha) was 98. The “Plant response rating: Kochia” value (kochia (Kochia scoparia); 62 g ai/ha) was 98, the “Plant response rating: Kochia” value (kochia (Kochia scoparia); 125 g ai/ha) was 98 and the “Plant response rating: Kochia” value (kochia (Kochia scoparia); 250 g ai/ha) was 98. The “Plant response rating: Poinsettia, Wild” value ([13]; Postemergence, 62 g ai/ha) was 60, the “Plant response rating: Poinsettia, Wild” value ([13]; Postemergence, 125 g ai/ha) was 70 and the “Plant response rating: Poinsettia, Wild” value ([13]; Postemergence, 250 g ai/ha) was 75. For the same molecule, the “Plant response rating: Poinsettia, Wild” value ([13]; Preemergence, 62 g ai/ha) was 35, the “Plant response rating: Poinsettia, Wild” value ([13]; Preemergence, 125 g ai/ha) was 35 and the “Plant response rating: Poinsettia, Wild” value ([13]; Preemergence, 250 g ai/ha) was 65.
